From the NIST ThermoML archive (doi:10.1021/je900436f) come the findings set out here.

Numbers after ± are expanded uncertainties.

For this series the following is noted: 298.15 K, Liquid.

Broadly, the mass density is mass per unit of volume.

Take `CCCCCl` [1-chlorobutane]: the mass density (13.52 kPa) turned out to be 880.805 ± 0.6 kg/m3. Regarding `CC(C)CO` [2-methyl-1-propanol], the mass density (1.535 kPa) is listed as 797.775 ± 0.6 kg/m3. For the compound `CC(C)(C)O` [2-methylpropan-2-ol], under “5.605 kPa”, the mass density amounted to 780.885 ± 0.75 kg/m3. For `CCCCCC` [hexane], the mass density (20.22 kPa) came out at 654.96 ± 1.4 kg/m3.
